Source: article PMC3936431 (Biomolecules & Therapeutics, 2014)

Experiments:
[1] = Stability in stock solutions and plasma samples; type: physicochemical, rabbits; conditions: for stock solution stability, mean %change: room temperature 12 h and 4°C 30 days
[2] = Pharmacokinetic studies after single intravenous or rectal administration; conditions: for Tmax / AUC(0-inf) / AUC(0-t): New Zealand white, rabbit, in vivo; for AUC(0-inf): AUC0-∞; for AUC(0-inf) / AUC(0-t) / AUC0-∞ / AUC0–30h: rabbits, plasma; for AUC(0-t): AUC0–30h
[3] = In vitro release, USP paddle method, phosphate buffer pH 7.4; type: physicochemical; conditions: in the first 30 min; paddle 100 rpm, phosphate buffer pH 7.4, 37°C
[4] = 100 mg/kg, rectal administration (suppository)
[5] = iv, 50 mg/kg, intravenous administration
[6] = intravenous administration, 50 mg/kg
[7] = rectal administration (suppository), 100 mg/kg

Row | Compound | stock solution stability ([1]; 4°C for 30 days) | stock solution stability, mean %change [1] | stock solution stability ([1]; room temperature for 12 h) | Tmax ([2]; 100 mg/kg) | AUC(0-inf) [2, 4] | AUC(0-t) [2, 4] | Tmax ([2]; iv, 50 mg/kg) | AUC(0-inf) [2, 5] | AUC(0-t) [2, 5] | AUC0-∞ [2, 6] | AUC0–30h [2, 6] | AUC0-∞ [2, 7] | AUC0–30h [2, 7] | drug released [3]
1 | CC[C@@]1(O)C(=O)OCc2c1cc1n(c2=O)Cc2cc3ccccc3nc2-1 [IS, camptothecin] | stable | < 7.7% | stable |  |  |  |  |  |  |  |  |  |  | 
2 | CCc1c2c(nc3ccc(OC(=O)N4CCC(N5CCCCC5)CC4)cc13)-c1cc3c(c(=O)n1C2)COC(=O)[C@]3(O)CC [irinotecan, 7-ethyl-10-[4-(1-piperidino)-1-piperidino]-carbonyloxy-camptothecin] | stable | < 7.7% | stable | 4 h | 41600 ± 7200 ng·h/mL | 32200 ± 6200 ng·h/mL | 0.25 h | 82300 ± 9500 ng·h/mL | 71300 ± 8800 ng·h/mL | 82330 ± 9470 ng·h/mL | 71310 ± 8750 ng·h/mL | 41620 ± 7240 ng·h/mL | 32150 ± 6150 ng·h/mL | 95%
